Here are results for 15 compounds from patent publication US4657898A, “N^6 -substituted adenosines and method of use” (Warner-Lambert Company, priority 1985, dated 1987).

One data set is described as follows: Mouse Activity and Screen Test Procedure (MAST): screen test failure (ST). As to conditions: 10 mg/kg i.p.; percent of mice falling off the screen. Here is the method: Nine unfasted Swiss-Webster male mice weighing 20-30 g are equally divided into three groups for each drug dose to be tested. That is, data for each dose level was generated by three separate groups of three mice each.
A minimum of three dose levels (10, 30, and 100 mg/kg) are tested for each drug. Treatments are administered intraperitoneally one hour prior to testing. All dosages are calculated as parent compound and given in volumes of 10 ml/kg. Compounds are dissolved or suspended in 0.2% Methocel. Control animals are injected with Methocel.
Testing: A two part testing procedure is started one hour postinjection. First, the screen test (ST) is performed (see Pharmac. Biochem. Behav. 6, 351-353, 1977). Briefly this test consists of placing mice on individual wire screens which are then rotated 180 degrees at the start of a 60 second observation period. The number of mice falling off the inverted screen is recorded.
Data: The data obtained from the screen test are expressed as percent of mice falling off the screen. Data derived from locomotor activity of drug treated mice are compared to the activity of vehicle treated animals and are expressed as percent inhibition of spontaneous locomotion. All percentages reported for inhibition of locomotion (LI) are based upon data accumulated for one hour. Both phases of testing are graded: A=60-100%; C=31-59%; and N=0-30%. An overall dose rating is obtained by the following criteria:
LAD refers to the lowest dose at which an A rating is achieved. […] The compounds are identified in the Examples.
As to `OC[C@H]1O[C@@H](n2cnc3c(NCCC(c4ccccc4)c4ccccc4)ncnc32)[C@H](O)[C@@H]1O` [Example 2, N^6-(3,3-Diphenylpropyl)adenosine], the “Inhibition of screen test failure” value was 0%.

For `OC[C@H]1O[C@@H](n2cnc3c(NCC(c4ccccc4)c4ccccc4)nc(Cl)nc32)[C@H](O)[C@@H]1O` [Example 3, N^6-(2,2-Diphenylethyl)-2-chloroadenosine], the “Inhibition of screen test failure” value is reported as 0%.

As to `Nc1nc(NCC(c2ccccc2)c2ccccc2)c2ncn([C@@H]3O[C@H](CO)[C@@H](O)[C@H]3O)c2n1` [Example 4, N^6-(2,2-Diphenylethyl)-2-aminoadenosine], the “Inhibition of screen test failure” value is listed as 0%.

The same data set, now with this note: 30 mg/kg i.p.; percent of mice falling off the screen.
On to `OC[C@H]1O[C@@H](n2cnc3c(NCCC(c4ccccc4)c4ccccc4)ncnc32)[C@H](O)[C@@H]1O` [Example 2, N^6-(3,3-Diphenylpropyl)adenosine], for which the “Inhibition of screen test failure” value is listed as 0%.

On to `OC[C@H]1O[C@@H](n2cnc3c(NCC(c4ccccc4)c4ccccc4)nc(Cl)nc32)[C@H](O)[C@@H]1O` [Example 3, N^6-(2,2-Diphenylethyl)-2-chloroadenosine], for which the “Inhibition of screen test failure” value amounted to 11%.

Take `Nc1nc(NCC(c2ccccc2)c2ccccc2)c2ncn([C@@H]3O[C@H](CO)[C@@H](O)[C@H]3O)c2n1` [Example 4, N^6-(2,2-Diphenylethyl)-2-aminoadenosine]: the “Inhibition of screen test failure” value amounted to 11%.

Staying with this data set, now noted: 100 mg/kg i.p.; percent of mice falling off the screen.
As to `OC[C@H]1O[C@@H](n2cnc3c(NCCC(c4ccccc4)c4ccccc4)ncnc32)[C@H](O)[C@@H]1O` [Example 2, N^6-(3,3-Diphenylpropyl)adenosine], the “Inhibition of screen test failure” value worked out at 0%.

Consider `OC[C@H]1O[C@@H](n2cnc3c(NCC(c4ccccc4)c4ccccc4)nc(Cl)nc32)[C@H](O)[C@@H]1O` [Example 3, N^6-(2,2-Diphenylethyl)-2-chloroadenosine], for which the “Inhibition of screen test failure” value stood at 44%.

For the compound `Nc1nc(NCC(c2ccccc2)c2ccccc2)c2ncn([C@@H]3O[C@H](CO)[C@@H](O)[C@H]3O)c2n1` [Example 4, N^6-(2,2-Diphenylethyl)-2-aminoadenosine], the “Inhibition of screen test failure” value was found to be 22%.

The data set is the same for the next values; noted with them: lowest dose at which an A rating is achieved, screen test; i.p., mouse.
Regarding `OC[C@H]1O[C@@H](n2cnc3c(NCCC(c4ccccc4)c4ccccc4)ncnc32)[C@H](O)[C@@H]1O` [Example 2, N^6-(3,3-Diphenylpropyl)adenosine], the “MAST ST LAD” value is on record as greater than 100 mg/kg.

For the compound `OC[C@H]1O[C@@H](n2cnc3c(NCC(c4ccccc4)c4ccccc4)nc(Cl)nc32)[C@H](O)[C@@H]1O` [Example 3, N^6-(2,2-Diphenylethyl)-2-chloroadenosine], the “MAST ST LAD” value is given as greater than 100 mg/kg.

Turning to `Nc1nc(NCC(c2ccccc2)c2ccccc2)c2ncn([C@@H]3O[C@H](CO)[C@@H](O)[C@H]3O)c2n1` [Example 4, N^6-(2,2-Diphenylethyl)-2-aminoadenosine], the “MAST ST LAD” value is greater than 100 mg/kg.

Regarding `OC[C@H]1O[C@@H](n2cnc3c(NC(c4ccccc4)c4ccccc4)ncnc32)[C@H](O)[C@@H]1O` [Example 5, N^6 -Diphenylmethyladenosine], the “MAST ST LAD” value is given as greater than 100 mg/kg.

Regarding `OC[C@H]1O[C@@H](n2cnc3c(NCCCC(c4ccccc4)c4ccccc4)ncnc32)[C@H](O)[C@@H]1O` [Example 6, N^6-(4,4-Diphenylbutyl)adenosine], the “MAST ST LAD” value is listed as greater than 100 mg/kg.

As to `OC[C@H]1O[C@@H](n2cnc3c(NCCCCC(c4ccccc4)c4ccccc4)ncnc32)[C@H](O)[C@@H]1O` [Example 7, N^6-(5,5-Diphenylpentyl)adenosine], the “MAST ST LAD” value is greater than 100 mg/kg.

For the compound `CC(CNc1ncnc2c1ncn2[C@@H]1O[C@H](CO)[C@@H](O)[C@H]1O)(c1ccccc1)c1ccccc1` [Example 8, N^6-(2,2-Diphenylpropyl)adenosine], the “MAST ST LAD” value was greater than 100 mg/kg.

With `Cc1cccc(C(CNc2ncnc3c2ncn3[C@@H]2O[C@H](CO)[C@@H](O)[C@H]2O)c2ccccc2)c1` (stereo partly drawn) [Example 9, N^6-(2-(3-Methylphenyl)-2-phenylethyl)adenosine], the “MAST ST LAD” value is given as 100 mg/kg.

Turning to `OC[C@H]1O[C@@H](n2cnc3c(NCC(c4ccccc4)c4ccc(F)cc4)ncnc32)[C@H](O)[C@@H]1O` (stereo partly drawn) [Example 10, N^6-(2-(4-Fluorophenyl)-2-phenylethyl)adenosine], the “MAST ST LAD” value is reported as greater than 100 mg/kg.

Turning to `OC[C@H]1O[C@@H](n2cnc3c(NCC(c4ccccc4)c4ccc(F)cc4)nc(Cl)nc32)[C@H](O)[C@@H]1O` (stereo partly drawn) [Example 11, N^6-(2-(4-Fluorophenyl)-2-phenylethyl)-2-chloroadenosine], the “MAST ST LAD” value is greater than 100 mg/kg.

Regarding `Nc1nc(NCC(c2ccccc2)c2ccc(F)cc2)c2ncn([C@@H]3O[C@H](CO)[C@@H](O)[C@H]3O)c2n1` (stereo partly drawn) [Example 12, N^6-(2-(4-Fluorophenyl)-2-phenylethyl)-2-amino adenosine], the “MAST ST LAD” value is reported as greater than 100 mg/kg.

For `OC[C@H]1O[C@@H](n2cnc3c(NCC(c4ccc(F)cc4)c4ccc(F)cc4)ncnc32)[C@H](O)[C@@H]1O` [Example 13, N^6-(2,2-Di-(4-fluorophenyl)ethyl)adenosine], the “MAST ST LAD” value is given as greater than 100 mg/kg.

In the case of `OC[C@H]1O[C@@H](n2cnc3c(NCC(c4ccccc4)c4cccc(Cl)c4)ncnc32)[C@H](O)[C@@H]1O` (stereo partly drawn) [Example 14, N^6-(2-(3-Chlorophenyl)-2-phenylethyl)adenosine], the “MAST ST LAD” value is given as greater than 100 mg/kg.

On to `OC[C@H]1O[C@@H](n2cnc3c(NCC(c4ccccc4)c4ccc(Cl)cc4)ncnc32)[C@H](O)[C@@H]1O` (stereo partly drawn) [Example 15, N^6-(2-(4-Chlorophenyl)-2-phenylethyl)adenosine], for which the “MAST ST LAD” value is greater than 100 mg/kg.

For the compound `Nc1nc(NCC(c2ccccc2)c2ccc(Cl)cc2)c2ncn([C@@H]3O[C@H](CO)[C@@H](O)[C@H]3O)c2n1` (stereo partly drawn) [Example 16], the “MAST ST LAD” value is greater than 100 mg/kg.
